The source of these data is US12600726B2, “Antagonists of the muscarinic acetylcholine receptor M4” (Vanderbilt University, priority 2017, dated 2026).

The target in one assay is T1, Rat M4 (Rattus norvegicus, UniProt P08485).
T1 construct: expressed in transfected cells; host or cells: CHO-K1 (ATCC), stably expressing M4 and Gqi5
T1 sequence (P08485 1-478): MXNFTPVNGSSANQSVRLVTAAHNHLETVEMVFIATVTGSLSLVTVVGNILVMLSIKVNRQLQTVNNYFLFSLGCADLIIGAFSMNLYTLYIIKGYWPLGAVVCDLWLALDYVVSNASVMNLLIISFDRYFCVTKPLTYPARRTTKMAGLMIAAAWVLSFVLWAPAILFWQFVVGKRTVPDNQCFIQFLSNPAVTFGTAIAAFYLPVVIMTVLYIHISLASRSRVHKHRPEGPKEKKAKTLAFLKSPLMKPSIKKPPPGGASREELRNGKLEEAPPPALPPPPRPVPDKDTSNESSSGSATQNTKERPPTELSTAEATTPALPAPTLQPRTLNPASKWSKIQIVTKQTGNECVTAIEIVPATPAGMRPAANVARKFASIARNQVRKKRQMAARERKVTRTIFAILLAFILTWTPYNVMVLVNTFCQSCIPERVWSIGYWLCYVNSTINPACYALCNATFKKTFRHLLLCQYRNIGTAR
The assay is described as follows: mAChR M4 cell-based functional calcium flux assay (rat M4/Gqi5/CHO cells). As to conditions: for Emin (rat M4): % ACh maximum at 30 μM. The method, then:
(§1) Human, rat, or mouse M4. cDNA, along with the chimeric G protein Gqi5, were transfected into Chinese hamster ovary (CHO-K1) cells purchased from the American Type Culture Collection using Lipofectamine2000. M4/Gqi5/CHO cells were grown in Ham's F-12 medium containing 10% heat-inactivated fetal bovine serum (FBS), 20 mM HEPES, 500 μg/mL G418 sulfate, and 200 μg/mL Hygromycin B.
(§2) For high throughput measurement of agonist-evoked increases in intracellular calcium, CHO-K1 cells stably expressing muscarinic receptors were plated in growth medium lacking G418 and hygromycin at 15,000 cells/20 μL/well in Greiner 384-well black-walled, tissue culture (TC)-treated, clear-bottom plates (VWR). Cells were incubated overnight at 37° C. and 5% CO2. The next day, cells were washed using an ELX 405 (BioTek) with assay buffer; the final volume was then aspirated to 20 μL. Next, 20 μL of a 2.3 μM stock of Fluo-4/acetoxymethyl ester (Invitrogen, Carlsbad, CA), prepared as a 2.3 mM stock in DMSO and mixed in a 1:1 ratio with 10% (w/v) Pluronic F-127 and diluted in assay buffer, was added to the wells and the cell plates were incubated for 50 min at 37° C. and 5% CO2. Dye was removed by washing with the ELX 405 and the final volume was aspirated to 20 μL. Compound master plates were formatted in a 10 point concentration-response curve (CRC) format (1:3 dilutions) in 100% DMSO with a starting concentration of 10 or 1 mM using a BRAVO liquid handler (Agilent). Test compound CRCs were then transferred to daughter plates (240 nL) using the Echo acoustic plate reformatter (Labcyte, Sunnyvale, CA) and then diluted into assay buffer (40 μL) to a 2× stock using a Thermo Fisher Combi (Thermo Fisher Scientific, Waltham, MA).
(§3) Calcium flux was measured using the Functional Drug Screening System (FDSS) 6000 or 7000 (Hamamatsu Corporation, Tokyo, Japan) as an increase in the fluorescent static ratio. Compounds were applied to cells (20 μL, 2×) using the automated system of the FDSS at 2 seconds into the protocol and the data were collected at 1 Hz. At 143 s, 10 μL of an EC20 concentration of the muscarinic receptor agonist acetylcholine was added (5×), followed by the addition of 12 μL of an EC80 concentration of acetylcholine at the 268 s time point (5×). Agonist activity was analyzed as a concentration-dependent increase in calcium mobilization upon compound addition. Positive allosteric modulator activity was analyzed as a concentration-dependent increase in the EC20 acetylcholine response. Antagonist activity was analyzed as a concentration-dependent decrease in the EC80 acetylcholine response; for the purposes of the tables herein, an IC50 (inhibitory concentration 50) was calculated as a concentration-dependent decrease of the response elicited by an EC80 concentration of acetylcholine. Concentration-response curves were generated using a four-parameter logistical equation in XLFit curve fitting software (IDBS, Bridgewater, NJ) for Excel (Microsoft, Redmond, WA) or Prism (GraphPad Software, Inc., San Diego, CA) or the Dotmatics software platform (Dotmatics, Bishop's Stortford, UK).
(§4) Compounds were synthesized as described above. Activity (IC50 and Emin) was determined in the mAChR M4 cell-based functional assay as described above and the data are shown in Table 2 and Table 3. The compound number corresponds to the compound numbers used in the examples and Tables 1 and 1.1.
For orientation: A change in cytosolic calcium serves as a functional read-out for many receptors and channels.

A further assay addresses T2, Human M4 (Homo sapiens, UniProt P08173).
T2 construct: expressed in transfected cells; host or cells: CHO-K1 (ATCC), stably expressing M4 and Gqi5
T2 sequence (P08173 1-479): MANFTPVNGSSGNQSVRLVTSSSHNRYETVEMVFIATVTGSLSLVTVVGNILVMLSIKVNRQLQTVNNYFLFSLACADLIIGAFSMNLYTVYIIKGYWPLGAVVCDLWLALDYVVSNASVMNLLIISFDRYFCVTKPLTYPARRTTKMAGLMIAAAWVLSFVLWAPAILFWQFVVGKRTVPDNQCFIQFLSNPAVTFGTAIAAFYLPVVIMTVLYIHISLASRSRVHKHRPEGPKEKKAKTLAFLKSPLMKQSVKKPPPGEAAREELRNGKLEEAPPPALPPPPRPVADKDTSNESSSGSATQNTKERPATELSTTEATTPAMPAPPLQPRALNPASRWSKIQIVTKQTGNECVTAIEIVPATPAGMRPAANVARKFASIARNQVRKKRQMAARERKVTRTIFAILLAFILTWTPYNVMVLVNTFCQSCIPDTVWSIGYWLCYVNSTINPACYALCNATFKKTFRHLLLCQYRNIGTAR
The assay is described as follows: mAChR M4 cell-based functional calcium flux assay (human M4/Gqi5/CHO cells). The conditions noted are these: for Emin (human M4): % ACh maximum at 30 μM; for IC50: decrease of the response to an EC80 concentration of acetylcholine. The method, then: as §1, §2, §3, §4

The mark [1] stands for this setting: cells printed in μM, decrease of the EC80 acetylcholine response.
[2] abbreviates: decrease of the response to an EC80 concentration of acetylcholine.

Turning to `Cc1cnn(C)c1-c1ccc(NCC2CC23CCN(CCC2CCCO2)CC3)nn1` (stereo not drawn) [Compound 4, 6-(1,4-dimethyl-1H-pyrazol-5-yl)-N-((6-(2-(tetrahydrofuran-2-yl)ethyl)-6-azaspiro[2.5]octan-1-yl)methyl)pyridazin-3-amine], the “Emin (rat M4)” value on Rat M4 turned out to be 26.5%. Further, at Rat M4 (setting [1]), the IC50 (as a rule, the concentration at which inhibition is half-maximal) was more than 10 µM.

For `Cc1nn(C)cc1-c1ccc(NCC2CC23CCN(CC2CC4C=CC2C4)CC3)nn1` (stereo not drawn) [Compound 9, N-[[6-(5-bicyclo[2.2.1]hept-2-enylmethyl)-6-azaspiro[2.5]octan-2-yl]methyl]-6-(1,3-dimethylpyrazol-4-yl)pyridazin-3-amine], the “Emin (rat M4)” value at Rat M4 is 3.98%. Besides, the IC50 at Rat M4 (setting [2]) came out at 0.012 µM.

Take `Cc1nn(C)cc1-c1ccc(NCC2CC23CCN(CC(C)C(C)(C)C)CC3)nn1` (stereo not drawn) [Compound 10, 6-(1,3-dimethylpyrazol-4-yl)-N-[[6-(2,3,3-trimethylbutyl)-6-azaspiro[2.5]octan-2-yl]methyl]pyridazin-3-amine]: the “Emin (rat M4)” value on Rat M4 came out at 3.57%. Also, the IC50 on Rat M4 (setting [2]) stood at 0.0478 µM.

For `Cc1cnn(C)c1-c1ccc(NCC2CC23CCN(CC2CCOCC2)CC3)nn1` (stereo not drawn) [Compound 74, 6-(2,4-dimethylpyrazol-3-yl)-N-[[6-(tetrahydropyran-4-ylmethyl)-6-azaspiro[2.5]octan-2-yl]methyl]pyridazin-3-amine], the “Emin (rat M4)” value at Rat M4 was found to be 29.9%. In addition, on Rat M4 (setting [1]), the IC50 was more than 10 µM.

As for `CC(C)(C)CCN1CCC2(CC1)CC2COc1ccc(-c2cc(F)ccc2Cl)nn1` (stereo not drawn) [Compound 77, 1-(((6-(2-chloro-5-fluorophenyl)pyridazin-3-yl)oxy)methyl)-6-(3,3-dimethylbutyl)-6-azaspiro[2.5]octane], the “Emin (rat M4)” value on Rat M4 amounted to 3%. Besides, the IC50 at Rat M4 (setting [2]) amounted to 0.288 µM.

Take `c1cc(N2CCOCC2)nnc1NCC1CC12CCN(CC1CCOCC1)CC2` (stereo not drawn) [Compound 85, 6-morpholino-N-[[6-(tetrahydropyran-4-ylmethyl)-6-azaspiro[2.5]octan-2-yl]methyl]pyridazin-3-amine]: on Human M4, the “Emin (human M4)” value was 10% and the half-maximal inhibitory concentration (IC50) came out at 1200 nM.

Consider `Cc1nn(C)cc1-c1nnc(NCC2CC23CCN(CC2CCOCC2)CC3)c2ccccc12` (stereo not drawn) [Compound 93, 4-(1,3-dimethylpyrazol-4-yl)-N-[[6-(tetrahydropyran-4-ylmethyl)-6-azaspiro[2.5]octan-2-yl]methyl]phthalazin-1-amine], for which, at Human M4, the “Emin (human M4)” value turned out to be 9% and the IC50 was 4.61 nM.

As to `Cc1nn(C)cc1-c1nnc(NCC2CC23CCN(CC2CCCCC2)CC3)c2ccccc12` (stereo not drawn) [Compound 94, N-[[6-(cyclohexylmethyl)-6-azaspiro[2.5]octan-2-yl]methyl]-4-(1,3-dimethylpyrazol-4-yl)phthalazin-1-amine], at Human M4, the “Emin (human M4)” value amounted to 5% and the IC50 turned out to be 16.1 nM.

Take `Cc1nn(C)cc1-c1nnc(NCC2CC23CCN(CCC(C)(C)C)CC3)c2ccccc12` (stereo not drawn) [Compound 95, N-[[6-(3,3-dimethylbutyl)-6-azaspiro[2.5]octan-2-yl]methyl]-4-(1,3-dimethylpyrazol-4-yl)phthalazin-1-amine]: at Human M4, the “Emin (human M4)” value is on record as 5% and the IC50 was 2.55 nM.

With `Cc1nn(C)cc1-c1nnc(NCC2CC23CCN(CC2CC4C=CC2C4)CC3)c2ccccc12` (stereo not drawn) [Compound 96, N-[[6-(5-bicyclo[2.2.1]hept-2-enylmethyl)-6-azaspiro[2.5]octan-2-yl]methyl]-4-(1,3-dimethylpyrazol-4-yl)phthalazin-1-amine], on Human M4, the “Emin (human M4)” value is listed as 5% and the 50% inhibitory concentration (IC50) turned out to be 2.96 nM.

As to `Fc1cccc(CN2CCC3(CC2)CC3CNc2ccc(-c3cc(F)ccc3Cl)nn2)c1` (stereo not drawn) [Compound 97, 6-(2-chloro-5-fluoro-phenyl)-N-[[6-[(3-fluorophenyl)methyl]-6-azaspiro[2.5]octan-2-yl]methyl]pyridazin-3-amine], on Human M4, the “Emin (human M4)” value was found to be 3% and the half-inhibitory concentration (IC50) worked out at 83.3 nM.

In the case of `N#Cc1ccccc1CN1CCC2(CC1)CC2CNc1ccc(-c2cc(F)ccc2Cl)nn1` (stereo not drawn) [Compound 98, 2-[[2-[[[6-(2-chloro-5-fluoro-phenyl)pyridazin-3-yl]amino]methyl]-6-azaspiro[2.5]octan-6-yl]methyl]benzonitrile], at Human M4, the “Emin (human M4)” value is reported as 5% and the half-maximal inhibitory concentration (IC50) worked out at 524 nM.

With `Fc1ccc(CN2CCC3(CC2)CC3CNc2ccc(-c3cc(F)ccc3Cl)nn2)cc1` (stereo not drawn) [Compound 99, 6-(2-chloro-5-fluoro-phenyl)-N-[[6-[(4-fluorophenyl)methyl]-6-azaspiro[2.5]octan-2-yl]methyl]pyridazin-3-amine], at Human M4, the “Emin (human M4)” value is listed as 3% and the IC50 worked out at 88.2 nM.

Take `Fc1ccc(Cl)c(-c2ccc(NCC3CC34CCN(Cc3ccccc3F)CC4)nn2)c1` (stereo not drawn) [Compound 100, 6-(2-chloro-5-fluoro-phenyl)-N-[[6-[(2-fluorophenyl)methyl]-6-azaspiro[2.5]octan-2-yl]methyl]pyridazin-3-amine]: on Human M4, the “Emin (human M4)” value came to 2% and the concentration for half-maximal inhibition (IC50) was determined as 88.2 nM.

`Fc1ccc(Cl)c(-c2ccc(NCC3CC34CCN(Cc3ccccc3)CC4)nn2)c1` (stereo not drawn) [Compound 101, N-[(6-benzyl-6-azaspiro[2.5]octan-2-yl)methyl]-6-(2-chloro-5-fluoro-phenyl)pyridazin-3-amine]: at Human M4, the “Emin (human M4)” value turned out to be 3% and the IC50 came to 69.2 nM.

Consider `Fc1ccc(Cl)c(-c2ccc(NC[C@@H]3CC34CCN(Cc3ccccc3)CC4)nn2)c1` [Compound 112, N-[[(2R)-6-benzyl-6-azaspiro[2.5]octan-2-yl]methyl]-6-(2-chloro-5-fluoro-phenyl)pyridazin-3-amine], for which, on Human M4, the “Emin (human M4)” value stood at 2% and the IC50 is 127 nM.

For `Fc1ccc(Cl)c(-c2ccc(NC[C@@H]3CC34CCN(Cc3ccccn3)CC4)nn2)c1` [Compound 113, 6-(2-chloro-5-fluoro-phenyl)-N-[[(2R)-6-(2-pyridylmethyl)-6-azaspiro[2.5]octan-2-yl]methyl]pyridazin-3-amine], on Human M4, the “Emin (human M4)” value is 2% and the IC50 came out at 88.3 nM.

Turning to `CC(=O)Nc1ccc(-c2ccc(NC[C@H]3CC34CCN(CC3CCCCC3)CC4)nn2)cc1` [Compound 125, N-[4-[6-[[(2S)-6-(cyclohexylmethyl)-6-azaspiro[2.5]octan-2-yl]methylamino]pyridazin-3-yl]phenyl]acetamide], at Human M4, the “Emin (human M4)” value came to 4% and the IC50 was 112 nM.
